Results published in ChEMBL document CHEMBL1133206, “Antifungal rapamycin analogues with reduced immunosuppressive activity” (Bioorg Med Chem Lett, 2000).
≈ marks a conversion by molar mass, not a printed value.

What was measured:
[1] = test system: Candida tropicalis; experiment: In vitro antifungal activity against Candida tropicalis (CT 750); type: functional
[2] = test system: Candida albicans; experiment: In vitro for antifungal activity against Candida albicans (CA 579a); type: functional
[3] = test system: Candida albicans; experiment: In vitro antifungal activity against Candida albicans (CA 10231); type: functional
[4] = organism: Homo sapiens; experiment: Inhibitory activity against human concanavalin-A proliferation assay; type: functional
[5] = test system: Pichia kudriavzevii; experiment: In vitro antifungal activity against Candida krusei (CK 28838); type: functional
[6] = molecular target: Peptidyl-prolyl cis-trans isomerase FKBP1A (Homo sapiens, UniProt P62942); experiment: The compound was tested for binding affinity to FK506 binding protein 12 using Rapamycin as control, with an ascomycin conjugate of alkaline phosphatase in a competition binding assay
Chain of Peptidyl-prolyl cis-trans isomerase FKBP1A (P62942 whole entry): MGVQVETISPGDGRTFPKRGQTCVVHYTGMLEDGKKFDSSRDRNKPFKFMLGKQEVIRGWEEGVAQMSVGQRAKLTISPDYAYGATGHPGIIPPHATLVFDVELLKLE

[7] = test system: Candida albicans; experiment: Compound was screened in vitro for antifungal activity against Candida albicans (CA 62376); weak; type: functional, organism-based
[8] = test system: Aspergillus niger; experiment: Compound was screened in vitro for antifungal activity at a minimum inhibitory concentration (~100 ug/mL) against Aspergillus niger; not affected; type: functional
[9] = test system: Candida albicans; experiment: Compound was screened in vitro for antifungal activity against Candida albicans (CA 442); weak; type: functional, organism-based
[10] = test system: Candida albicans; experiment: Compound was screened in vitro for antifungal activity at a minimum inhibitory concentration (~100 ug/mL) against […] (CA 34140); not affected; type: functional
[11] = test system: Candida albicans; experiment: Compound was screened in vitro for antifungal activity against Candida albicans (CA 38247); weak; type: functional, organism-based
[12] = test system: Nakaseomyces glabratus; experiment: In vitro antifungal activity against Torulopsis glabrata (TG 15545); type: functional
[13] = test system: Candida albicans; experiment: In vitro antifungal activity against Candida albicans (CA 38247); Weak; type: functional, organism-based
[14] = test system: Candida albicans; experiment: In vitro antifungal activity against Candida albicans (CA 62376); Weak; type: functional, organism-based
[15] = test system: Candida albicans; experiment: In vitro antifungal activity against Candida albicans (CA 442); Weak; type: functional, organism-based
[16] = test system: Aspergillus niger; experiment: Compound was screened in vitro for antifungal activity at a minimum inhibitory concentration (~100 ug/mL) against Aspergillus nigerl; Not effected; type: functional
[17] = test system: Candida albicans; experiment: In vitro antifungal activity against […] (CA 34140); Not affected.; type: functional
[18] = test system: Candida albicans; experiment: Compound was screened in vitro for antifungal activity against Candida albicans (CA 62376); type: functional
[19] = test system: Candida albicans; experiment: Compound was screened in vitro for antifungal activity against Candida albicans (CA 442); type: functional
[20] = test system: Candida albicans; experiment: Compound was screened in vitro for antifungal activity against Candida albicans (CA 38247); type: functional
[21] = test system: Candida albicans; experiment: Compound was screened in vitro for antifungal and immunosuppressive activity against Candida albicans (CA 38247); type: functional
[22] = test system: Candida albicans; experiment: Compound was screened in vitro for antifungal activity at a minimum inhibitory concentration (~100 ug/mL) against […] ([…]); Not affected; type: functional
[23] = test system: Candida tropicalis; experiment: Compound was screened in vitro for antifungal activity against Candida tropicalis (CT 750)
[24] = test system: Aspergillus niger; experiment: In vitro antifungal activity at a minimum inhibitory concentration (~100 ug/mL) against Aspergillus niger; Not affected; type: functional; conditions: Aspergillus niger; read-out: MIC

Compound | MIC [1] | MIC [2] | MIC [3] | IC50 [4] | MIC [5] | IC50 [6] | MIC [12] | MIC [13] | MIC [14] | MIC [15] | MIC [18] | MIC [19] | MIC [20] | also measured
CO[C@H]1C[C@@H]2CC[C@@H](C)[C@@](O)(O2)C(=O)C(=O)N2CCCC[C@H]2C(=O)O[C@H]([C@H](C)C[C@@H]2CC[C@@H](OC(=O)N(C)OC)[C@H](OC)C2)CC(=O)[C@H](C)/C=C(\C)[C@@H](O)[C@@H](OC)C(=O)[C@H](C)C[C@H](C)CCCC/C=C/1C | > 100 µg/mL | > 100 µg/mL | 50 µg/mL (≈ 49.7 µM) | 2470 nM | > 100 µg/mL | > 1000 nM |  |  |  |  |  |  |  | 
CO[C@@H]1C[C@H](C[C@@H](C)[C@@H]2CC(=O)[C@H](C)/C=C(\C)[C@@H](O)[C@@H](OC)C(=O)[C@H](C)C[C@H](C)/C=C/C=C/C=C(\C)[C@H](N(O)C(C)=O)C[C@@H]3CC[C@@H](C)[C@@](O)(O3)C(=O)C(=O)N3CCCC[C@H]3C(=O)O2)CC[C@H]1O | 6.25 µg/mL (≈ 6.53 µM) | 6.25 µg/mL (≈ 6.53 µM) | 6.25 µg/mL (≈ 6.53 µM) | 95 nM | 3.12 µg/mL (≈ 3.26 µM) |  | 1.56 µg/mL (≈ 1.63 µM) |  |  |  |  |  |  | MIC [7]: Weak; MIC [8]: ~100 µg/mL (≈ 104 µM); MIC [9]: Weak; MIC [10]: ~100 µg/mL (≈ 104 µM); MIC [11]: Weak
CO[C@@H]1C[C@H](C[C@@H](C)[C@@H]2CC(=O)[C@H](C)/C=C(\C)[C@@H](O)[C@@H](OC)C(=O)[C@H](C)C[C@H](C)/C=C/C=C/C=C(\C)[C@H](N(O)C(=O)N3CCOCC3)C[C@@H]3CC[C@@H](C)[C@@](O)(O3)C(=O)C(=O)N3CCCC[C@H]3C(=O)O2)CC[C@H]1O | 25 µg/mL (≈ 24.3 µM) | 50 µg/mL (≈ 48.6 µM) | 25 µg/mL (≈ 24.3 µM) | 1740 nM | 6.25 µg/mL (≈ 6.08 µM) |  | 6.25 µg/mL (≈ 6.08 µM) | Weak | Weak | Weak |  |  |  | MIC [16]: ~100 µg/mL (≈ 97.2 µM); MIC [17]: ~100 µg/mL (≈ 97.2 µM)
CO[C@H]1C[C@@H]2CC[C@@H](C)[C@@](O)(O2)C(=O)C(=O)N2CCCC[C@H]2C(=O)O[C@H]([C@H](C)C[C@@H]2CCC(O)[C@H](OC)C2)CC(=O)[C@H](C)/C=C(\C)[C@@H](O)[C@@H](OC)C(=O)[C@H](C)C[C@H](C)CCCC/C=C/1C (single isomer, unassigned; 2) | 1.56 µg/mL (≈ 1.7 µM) | 1.56 µg/mL (≈ 1.7 µM) | 1.56 µg/mL (≈ 1.7 µM) | 1590 nM | 1.56 µg/mL (≈ 1.7 µM) |  |  |  |  |  | 1.56 µg/mL (≈ 1.7 µM) | 1.56 µg/mL (≈ 1.7 µM) | 1.56 µg/mL (≈ 1.7 µM) | 
CO[C@H]1C[C@@H]2CC[C@@H](C)[C@@](O)(O2)C(=O)C(=O)N2CCCC[C@H]2C(=O)O[C@H]([C@H](C)C[C@@H]2CCC(O)[C@H](OC)C2)CC(=O)[C@H](C)/C=C(\C)[C@@H](O)[C@@H](OC)C(=O)[C@H](C)C[C@H](C)CCCC/C=C/1C (single isomer, unassigned; 3) | 1.56 µg/mL (≈ 1.7 µM) | 1.56 µg/mL (≈ 1.7 µM) | 1.56 µg/mL (≈ 1.7 µM) | 3400 nM | 0.78 µg/mL (≈ 0.849 µM) |  |  |  |  |  | 0.78 µg/mL (≈ 0.849 µM) | 1.56 µg/mL (≈ 1.7 µM) | 1.56 µg/mL (≈ 1.7 µM) | 
CO[C@H]1C[C@@H]2CC[C@@H](C)[C@@](O)(O2)C(=O)C(=O)N2CCCC[C@H]2C(=O)O[C@H]([C@H](C)C[C@@H]2CC[C@@H](OC(=O)c3ccc([N+](=O)[O-])cc3)[C@H](OC)C2)CC(=O)[C@H](C)/C=C(\C)[C@@H](O)[C@@H](OC)C(=O)[C@H](C)C[C@H](C)CCCC/C=C/1C | > 100 µg/mL | > 100 µg/mL | > 100 µg/mL |  | > 100 µg/mL |  |  |  |  |  | > 100 µg/mL | > 100 µg/mL |  | MIC [21]: > 100 µg/mL
CO[C@H]1C[C@@H]2CC[C@@H](C)[C@@](O)(O2)C(=O)C(=O)N2CCCC[C@H]2C(=O)O[C@H]([C@H](C)C[C@@H]2CC[C@H](n3cnnn3)[C@H](OC)C2)CC(=O)[C@H](C)/C=C(\C)[C@@H](O)[C@@H](OC)C(=O)[C@H](C)C[C@H](C)CCCC/C=C/1C | > 100 µg/mL | > 100 µg/mL | > 100 µg/mL |  | > 100 µg/mL |  |  |  |  |  | > 100 µg/mL | > 100 µg/mL | > 100 µg/mL | 
CO[C@H]1C[C@@H]2CC[C@@H](C)[C@@](O)(O2)C(=O)C(=O)N2CCCC[C@H]2C(=O)O[C@H]([C@H](C)C[C@@H]2CC[C@@H](O)[C@H](OC)C2)CC(=O)[C@H](C)/C=C(\C)[C@@H](O)[C@@H](OC)C(=O)[C@H](C)C[C@H](C)/C=C/C=C/C=C/1C [SIROLIMUS] |  | 0.2 µg/mL (≈ 0.219 µM) | 0.2 µg/mL (≈ 0.219 µM) | 1 nM | 0.78 µg/mL (≈ 0.853 µM) |  | < 0.1 µg/mL | Weak | Weak | Weak | 0.2 µg/mL (≈ 0.219 µM) | 0.2 µg/mL (≈ 0.219 µM) | 0.2 µg/mL (≈ 0.219 µM) | MIC [22]: ~100 µg/mL (≈ 109 µM); MIC [23]: 0.2 µg/mL (≈ 0.219 µM); MIC [24]: ~100 µg/mL (≈ 109 µM)
COC(=O)N[C@@H]1C[C@@H]2CC[C@@H](C)[C@@](O)(O2)C(=O)C(=O)N2CCCC[C@H]2C(=O)O[C@H]([C@H](C)C[C@@H]2CC[C@@H](O)[C@H](OC)C2)CC(=O)[C@H](C)/C=C(\C)[C@@H](O)[C@@H](OC)C(=O)[C@H](C)C[C@H](C)/C=C/C=C/C=C/1C | 1.56 µg/mL (≈ 1.63 µM) | 1.56 µg/mL (≈ 1.63 µM) | 1.56 µg/mL (≈ 1.63 µM) | 1380 nM | 0.78 µg/mL (≈ 0.815 µM) |  | 0.78 µg/mL (≈ 0.815 µM) |  |  |  |  |  |  | MIC [7]: Weak; MIC [8]: ~100 µg/mL (≈ 104 µM); MIC [9]: Weak; MIC [10]: ~100 µg/mL (≈ 104 µM); MIC [11]: Weak
CO[C@@H]1C[C@H](C[C@@H](C)[C@@H]2CC(=O)[C@H](C)/C=C(\C)[C@@H](O)[C@@H](OC)C(=O)[C@H](C)C[C@H](C)/C=C/C=C/C=C(\C)[C@H](O)C[C@@H]3CC[C@@H](C)[C@@](O)(O3)C(=O)C(=O)N3CCCC[C@H]3C(=O)O2)CC[C@H]1O | 1.56 µg/mL (≈ 1.73 µM) | 3.12 µg/mL (≈ 3.47 µM) | 1.56 µg/mL (≈ 1.73 µM) | 6.3 nM | 0.78 µg/mL (≈ 0.867 µM) | 14 nM | 0.78 µg/mL (≈ 0.867 µM) | Weak | Weak | Weak |  |  |  | MIC [17]: ~100 µg/mL (≈ 111 µM); MIC [24]: ~100 µg/mL (≈ 111 µM)
CO[C@@H]1C[C@H](C[C@@H](C)[C@@H]2CC(=O)[C@H](C)/C=C(\C)[C@@H](O)[C@@H](OC)C(=O)[C@H](C)C[C@H](C)/C=C/C=C/C=C(\C)[C@@H](N(O)C(=O)Oc3ccccc3)C[C@@H]3CC[C@@H](C)[C@@](O)(O3)C(=O)C(=O)N3CCCC[C@H]3C(=O)O2)CC[C@H]1O | 12.5 µg/mL (≈ 12.1 µM) | 25 µg/mL (≈ 24.1 µM) | 12.5 µg/mL (≈ 12.1 µM) | 1100 nM | 1.56 µg/mL (≈ 1.51 µM) | 2.1 nM | 1.56 µg/mL (≈ 1.51 µM) | Weak | Weak | Weak |  |  |  | MIC [17]: ~100 µg/mL (≈ 96.6 µM); MIC [24]: ~100 µg/mL (≈ 96.6 µM)
CO[C@H]1C[C@@H]2CC[C@@H](C)[C@@](O)(O2)C(=O)C(=O)N2CCCC[C@H]2C(=O)O[C@H]([C@H](C)C[C@@H]2CC[C@@H](OC(=O)N3CCOCC3)[C@H](OC)C2)CC(=O)[C@H](C)/C=C(\C)[C@@H](O)[C@@H](OC)C(=O)[C@H](C)C[C@H](C)CCCC/C=C/1C | > 100 µg/mL | > 100 µg/mL | > 100 µg/mL |  | > 100 µg/mL | > 1000 nM |  |  |  |  |  | > 100 µg/mL | > 100 µg/mL | 
